Patent US11207301B2, “Sphingosine 1 phosphate receptor agonists for neuroprotection” (RECEPTOS LLC, priority 2017, dated 2021)
“Also recorded” adds a separate entry of the source.

Key:
[1] = system: primary rodent astrocytes; experiment: Primary rodent astrocytes in vitro, resting and LPS-activated; assay type: cell-based
Protocol: In addition, the effects of ozanimod on the CNS were examined in vivo using the cuprizone-induced mouse model of demyelination and in vitro in primary rodent astrocytes. Efficacy of ozanimod or compound (2-R) was examined in the cuprizone-induced mouse model of neuroprotection. C57BL/6 mice were treated with cuprizone (0.3% weight/weight orally) and rapamycin (10 mg/kg intraperitoneally daily) to demyelinate axons in the brain and concurrently treated with ozanimod (0.1, 0.3, or 1 mg/kg) or compound (2-S) (1 mg/kg) by daily oral gavage to investigate its neuroprotective activity. Neuroprotection was assessed through examination of axonal pathology in the corpus callosum using SMI-32 (antineurofilament H non-phosphorylated mouse monoclonal antibody) staining, functional assessment through kinematic gait analysis and the plasma biomarker neurofilament light chain (NfL). Further, direct activity of ozanimod was examined in resting and activated primary rodent astrocytes in vitro.

[2] = molecular target: T1, Recombinant human MAO-B (Homo sapiens, UniProt P27338); experiment: MAO-B inhibition, conversion of kynuramine to 4-hydroxyquinoline; assay type: biochemical
T1 construct: purchased Sigma-Aldrich M7441; host or cells: baculovirus infected insect cells
T1 sequence (P27338 1-520): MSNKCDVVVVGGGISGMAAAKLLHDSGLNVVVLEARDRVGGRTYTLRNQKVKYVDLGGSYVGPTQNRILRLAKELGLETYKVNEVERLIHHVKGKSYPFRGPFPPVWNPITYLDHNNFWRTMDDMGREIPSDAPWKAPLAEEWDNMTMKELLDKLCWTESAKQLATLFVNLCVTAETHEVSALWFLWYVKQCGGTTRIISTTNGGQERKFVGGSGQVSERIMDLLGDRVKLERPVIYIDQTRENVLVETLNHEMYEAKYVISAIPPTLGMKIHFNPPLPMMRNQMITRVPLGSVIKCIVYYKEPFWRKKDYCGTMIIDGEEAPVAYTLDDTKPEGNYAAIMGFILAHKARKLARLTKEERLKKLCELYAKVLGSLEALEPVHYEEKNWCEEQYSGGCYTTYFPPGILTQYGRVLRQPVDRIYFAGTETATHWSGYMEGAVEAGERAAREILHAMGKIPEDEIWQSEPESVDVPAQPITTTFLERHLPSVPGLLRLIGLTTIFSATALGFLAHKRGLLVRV
Protocol: (§1) The effect of a S1P receptoragonist on MAO-B activity can be assessed by measuring the inhibition of conversion of substrate kynuramine to 4-hydroxyquinoline as described in Example 4.
(§2) Compound 1 and Compound 2-S were evaluated for their ability to inhibit MAO-A and MAO-B. Inhibition of the conversion of kynuramine, a substrate for MAO-A and MAO-B, to 4-hydroxyquinoline was used to assess the inhibitory potential of Compound 1 and Compound 2-S. Recombinant human MAO-A (product number M7316) and MAO-B (product number M7441) expressed in baculovirus infected insect cells were obtained from Sigma-Aldrich, Saint Louis, Mo. USA were used as a source of purified MAOs.
(§3) Recombinant MAO-A (0.01 mg/mL, final concentrations) and MAO-B (0.02 mg/mL, final concentration) were diluted to desired concentrations in 100 mM potassium phosphate buffer (pH 7.4) containing 5 mM MgCl2. The diluted protein fractions were preincubated with various concentrations of each test compound at 37° C. for 2 min. The concentrations used were 100, 33, 10, 3.3, 1.0, 0.33 μM and acetonitrile/DMSO as vehicle control for MAO-A and 1.0, 0.3, 0.1, 0.03, 0.01, 0.003 μM and acetonitrile/DMSO as vehicle control for MAO-B. The reaction was started by addition of kynuramine to the incubation mixture. The final concentration of kynuramine was 40 μM for MAO-A and 25 μM for MAO-B. The total incubation volume was 0.250 mL. This concentration was selected to be close to the Km values of MAO-A (Km 42 μM) and MAO-B (Km 26 μM). After 10 min of incubation, aliquots (100 μL) of the reaction mixture were taken and added to 200 μL acetonitrile containing 0.5 μM IS (acetaminophen). The reaction product, 4-hydroxyquinoline was analyzed by LC-MS/MS as described below.
MS characterization and detection of kynuramine and 4-hydroxyquinoline was performed using ABI 4000 Sciex QTrap mass spectrometer utilizing a Turbo Spray. The mass spectrometer was controlled by Analyst v1.6.2. The ESI was operated in a positive ion mode and the experimental parameters were set as follows: ion spray voltage, 2000; source temperature, 550° C.; curtain gas, 20; collision gas, medium ion source gas 1, 55; ion source gas 2, 50. […]
(§4) The gradient system was used to separate the analytes with a flow rate of 0.5 ml/min using mobile phase A, water containing 0.1% formic acid and mobile phase B, acetonitrile containing 0.1% formic acid. […] The analytes were monitored using multiple reaction monitoring and the ion transitions (Q1/Q3) were as follows: 4-hydroxyquinoline 146/104 (collision energy, CE was 27; declustering potential, DP, 50, and IS (acetaminophen), 152/110 (collision energy, CE was 27; declustering potential, DP, 50). All data were analyzed using AB Sciex Analyst v1.6.2 software.

[3] = molecular target: T2, Recombinant human MAO-A (Homo sapiens, UniProt P21397); experiment: MAO-A inhibition, conversion of kynuramine to 4-hydroxyquinoline; assay type: biochemical; conditions: tested up to 100 μM
T2 construct: purchased Sigma-Aldrich M7316; host or cells: baculovirus infected insect cells
T2 sequence (P21397 1-527): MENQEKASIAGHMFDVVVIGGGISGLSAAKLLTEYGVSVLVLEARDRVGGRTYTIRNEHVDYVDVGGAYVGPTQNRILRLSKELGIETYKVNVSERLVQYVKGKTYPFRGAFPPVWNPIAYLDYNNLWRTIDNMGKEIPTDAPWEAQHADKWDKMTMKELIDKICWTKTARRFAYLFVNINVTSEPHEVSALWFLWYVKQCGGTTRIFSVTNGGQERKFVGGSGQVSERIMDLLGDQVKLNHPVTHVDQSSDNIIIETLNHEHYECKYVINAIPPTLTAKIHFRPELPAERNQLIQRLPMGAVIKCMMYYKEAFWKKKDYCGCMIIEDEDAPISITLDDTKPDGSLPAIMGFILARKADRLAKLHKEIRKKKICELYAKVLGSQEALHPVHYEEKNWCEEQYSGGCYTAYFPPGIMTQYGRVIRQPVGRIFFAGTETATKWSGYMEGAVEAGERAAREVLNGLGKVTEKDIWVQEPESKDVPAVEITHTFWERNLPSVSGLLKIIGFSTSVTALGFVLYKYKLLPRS
Protocol: as §1, §2
as §3, with “This concentration was selected to be close to the Km values of MAO-A (Km 42 μM) and MAO-B (Km 26 μM). After 10 min of incubation, aliquots (100 μL) of the reaction mixture were taken and added to 200 μL acetonitrile containing 0.5 μM IS (acetaminophen).” left out, “below. […]” for “below.”
as §4

SMILES	release of pro-inflammatory cytokines, including IL-1β, TNFα, IL-6, and KC/GRO ([1]; induced by LPS activation)	ERK and AKT signaling pathways ([1]; primary rodent astrocytes)	MAO-B inhibition (in words) [2]	IC50 ([2]; kynuramine 25 μM, 10 min incubation)	MAO-A inhibition (in words) [3]
CC(C)Oc1ccc(-c2nc(-c3cccc4c3CC[C@@H]4NCCO)no2)cc1C#N [Ozanimod]	attenuated the release of pro-inflammatory cytokines	directly activated ERK and AKT signaling pathways			
CC(C)Oc1ccc(-c2nc(-c3cccc4c3CCC4=O)no2)cc1C#N [Compound 1, 2-isopropoxy-5-(3-(1-oxo-2,3-dihydro-1H-inden-4-yl)-1,2,4-oxadiazol-5-yl)benzonitrile]			potent inhibition	6.6 nM	not an inhibitor; also recorded: does not inhibit
